The values that follow are results of earlier work, collected in US20210228489A1, “COMPOSITIONS FOR TREATING CYSTIC FIBROSIS” (Vertex Pharmaceuticals Incorporated, priority 2017, published 2021).

One may read the EC30 as the point of the concentration-response curve where the effect stands at 30%.

In the series the test system is CFTR. The conditions noted are these: CFTR modulator; disclosed in PCT Publication No. WO 2016/057572.

Regarding `CC(C)COc1cc(F)cc(-c2ccc(C(=O)NS(=O)(=O)c3cccc(N)n3)c(N3C[C@@H](C)CC3(C)C)n2)c1` [Compound I, N-[(6-amino-2-pyridyl)sulfonyl]-6-(3-fluoro-5-isobutoxy-phenyl)-2-[(4S)-2,2,4-trimethylpyrrolidin-1-yl]pyridine-3-carboxamide], the 30% effect concentration (EC30) is less than 3 µM.
